{"source": "the supplement of paper PMC10307832", "data": [{"compound": "COc1cccc2c1C(=O)c1c(O)c3c(c(O)c1C2=O)C[C@@](O)(C(=O)CO)C[C@@H]3O[C@H]1C[C@H](N)[C@H](O)[C@H](C)O1 [Doxorubicin] + CC(=O)c1c(C)c2cnc(Nc3ccc(N4CCNCC4)cn3)nc2n(C2CCCC2)c1=O [Palbociclib] (partner 0.5 µM)", "assay": "relative viability (nuclei count vs DMSO), 5 days (fraction); higher = more cells survive", "settings": "first compound 0.001 µM", "outline": "(§1)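 Lung cancer cell lines were seeded in 1536-well plates and dosed by pin tool the next day, with either a single drug or a fixed anchor-drug dose combined with five library-drug doses (not always all listed) spaced in √10 steps. Five days later, one step fixed the cells and stained their nuclei (final 0.05% Triton X-100, 1% formaldehyde, 1 ug/ml Hoechst), and nuclei were counted on 4× images. Relative viability is the nuclei count in treated wells divided by the count in vehicle wells, and each value is the median of duplicate plates.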", "values": [{"cell line": "LCLC-103H", "relative viability": 0.468}, {"cell line": "NCI-H1650", "relative viability": 0.237}, {"cell line": "NCI-H2170", "relative viability": 0.409}, {"cell line": "NCI-H1993", "relative viability": 0.492}, {"cell line": "NCI-H23", "relative viability": 0.503}, {"cell line": "ABC-1", "relative viability": 0.651}, {"cell line": "SK-MES-1", "relative viability": 0.326}, {"cell line": "PC-14", "relative viability": 0.532}, {"cell line": "HCC-366", "relative viability": 0.352}]}, {"compound": "COc1cccc2c1C(=O)c1c(O)c3c(c(O)c1C2=O)C[C@@](O)(C(=O)CO)C[C@@H]3O[C@H]1C[C@H](N)[C@H](O)[C@H](C)O1 [Doxorubicin] + CC(=O)c1c(C)c2cnc(Nc3ccc(N4CCNCC4)cn3)nc2n(C2CCCC2)c1=O [Palbociclib] (partner 0.5 µM)", "assay": "relative viability (nuclei count vs DMSO), 5 days (fraction); higher = more cells survive", "settings": "first compound 0.003162 µM", "outline": "as §1", "values": [{"cell line": "LCLC-103H", "relative viability": 0.508}, {"cell line": "NCI-H1650", "relative viability": 0.317}, {"cell line": "NCI-H2170", "relative viability": 0.389}, {"cell line": "NCI-H1993", "relative viability": 0.695}, {"cell line": "NCI-H23", "relative viability": 0.568}, {"cell line": "ABC-1", "relative viability": 0.712}, {"cell line": "SK-MES-1", "relative viability": 0.319}, {"cell line": "PC-14", "relative viability": 0.501}, {"cell line": "HCC-366", "relative viability": 0.456}]}, {"compound": "COc1cccc2c1C(=O)c1c(O)c3c(c(O)c1C2=O)C[C@@](O)(C(=O)CO)C[C@@H]3O[C@H]1C[C@H](N)[C@H](O)[C@H](C)O1 [Doxorubicin] + CC(=O)c1c(C)c2cnc(Nc3ccc(N4CCNCC4)cn3)nc2n(C2CCCC2)c1=O [Palbociclib] (partner 0.5 µM)", "assay": "relative viability (nuclei count vs DMSO), 5 days (fraction); higher = more cells survive", "settings": "first compound 0.01 µM", "outline": "as §1", "values": [{"cell line": "LCLC-103H", "relative viability": 0.5}, {"cell line": "NCI-H1650", "relative viability": 0.282}, {"cell line": "NCI-H2170", "relative viability": 0.386}, {"cell line": "NCI-H1993", "relative viability": 0.639}, {"cell line": "NCI-H23", "relative viability": 0.479}, {"cell line": "ABC-1", "relative viability": 0.543}, {"cell line": "SK-MES-1", "relative viability": 0.321}, {"cell line": "PC-14", "relative viability": 0.312}, {"cell line": "HCC-366", "relative viability": 0.361}]}, {"compound": "COc1cccc2c1C(=O)c1c(O)c3c(c(O)c1C2=O)C[C@@](O)(C(=O)CO)C[C@@H]3O[C@H]1C[C@H](N)[C@H](O)[C@H](C)O1 [Doxorubicin] + CC(=O)c1c(C)c2cnc(Nc3ccc(N4CCNCC4)cn3)nc2n(C2CCCC2)c1=O [Palbociclib] (partner 0.5 µM)", "assay": "relative viability (nuclei count vs DMSO), 5 days (fraction); higher = more cells survive", "settings": "first compound 0.03162 µM", "outline": "as §1", "values": [{"cell line": "LCLC-103H", "relative viability": 0.457}, {"cell line": "NCI-H1650", "relative viability": 0.173}, {"cell line": "NCI-H2170", "relative viability": 0.313}, {"cell line": "NCI-H1993", "relative viability": 0.625}, {"cell line": "NCI-H23", "relative viability": 0.428}, {"cell line": "ABC-1", "relative viability": 0.471}, {"cell line": "SK-MES-1", "relative viability": 0.281}, {"cell line": "PC-14", "relative viability": 0.194}, {"cell line": "HCC-366", "relative viability": 0.275}]}, {"compound": "COc1cccc2c1C(=O)c1c(O)c3c(c(O)c1C2=O)C[C@@](O)(C(=O)CO)C[C@@H]3O[C@H]1C[C@H](N)[C@H](O)[C@H](C)O1 [Doxorubicin] + CC(=O)c1c(C)c2cnc(Nc3ccc(N4CCNCC4)cn3)nc2n(C2CCCC2)c1=O [Palbociclib] (partner 0.5 µM)", "assay": "relative viability (nuclei count vs DMSO), 5 days (fraction); higher = more cells survive", "settings": "first compound 0.1 µM", "outline": "as §1", "values": [{"cell line": "LCLC-103H", "relative viability": 0.41}, {"cell line": "NCI-H1650", "relative viability": 0.145}, {"cell line": "NCI-H2170", "relative viability": 0.447}, {"cell line": "NCI-H1993", "relative viability": 0.649}, {"cell line": "NCI-H23", "relative viability": 0.44}, {"cell line": "ABC-1", "relative viability": 0.368}, {"cell line": "SK-MES-1", "relative viability": 0.23}, {"cell line": "PC-14", "relative viability": 0.0531}, {"cell line": "HCC-366", "relative viability": 0.361}]}, {"compound": "COc1cccc2c1C(=O)c1c(O)c3c(c(O)c1C2=O)C[C@@](O)(C(=O)CO)C[C@@H]3O[C@H]1C[C@H](N)[C@H](O)[C@H](C)O1 [Doxorubicin] + O=C(c1cc(Cc2n[nH]c(=O)c3ccccc23)ccc1F)N1CCN(C(=O)C2CC2)CC1 [Olaparib] (partner 8 µM)", "assay": "relative viability (nuclei count vs DMSO), 5 days (fraction); higher = more cells survive", "settings": "first compound 0.001 µM", "outline": "as §1", "values": [{"cell line": "LCLC-103H", "relative viability": 0.726}, {"cell line": "NCI-H1650", "relative viability": 0.764}, {"cell line": "NCI-H2170", "relative viability": 0.617}, {"cell line": "NCI-H1993", "relative viability": 0.0056}, {"cell line": "NCI-H23", "relative viability": 0.356}, {"cell line": "ABC-1", "relative viability": 0.946}, {"cell line": "SK-MES-1", "relative viability": 0.659}, {"cell line": "PC-14", "relative viability": 0.239}, {"cell line": "HCC-366", "relative viability": 0.33}]}, {"compound": "COc1cccc2c1C(=O)c1c(O)c3c(c(O)c1C2=O)C[C@@](O)(C(=O)CO)C[C@@H]3O[C@H]1C[C@H](N)[C@H](O)[C@H](C)O1 [Doxorubicin] + O=C(c1cc(Cc2n[nH]c(=O)c3ccccc23)ccc1F)N1CCN(C(=O)C2CC2)CC1 [Olaparib] (partner 8 µM)", "assay": "relative viability (nuclei count vs DMSO), 5 days (fraction); higher = more cells survive", "settings": "first compound 0.003162 µM", "outline": "as §1", "values": [{"cell line": "LCLC-103H", "relative viability": 0.82}, {"cell line": "NCI-H1650", "relative viability": 0.865}, {"cell line": "NCI-H2170", "relative viability": 0.735}, {"cell line": "NCI-H1993", "relative viability": 0.942}, {"cell line": "NCI-H23", "relative viability": 0.373}, {"cell line": "ABC-1", "relative viability": 0.761}, {"cell line": "SK-MES-1", "relative viability": 0.534}, {"cell line": "PC-14", "relative viability": 0.257}, {"cell line": "HCC-366", "relative viability": 0.348}]}, {"compound": "COc1cccc2c1C(=O)c1c(O)c3c(c(O)c1C2=O)C[C@@](O)(C(=O)CO)C[C@@H]3O[C@H]1C[C@H](N)[C@H](O)[C@H](C)O1 [Doxorubicin] + O=C(c1cc(Cc2n[nH]c(=O)c3ccccc23)ccc1F)N1CCN(C(=O)C2CC2)CC1 [Olaparib] (partner 8 µM)", "assay": "relative viability (nuclei count vs DMSO), 5 days (fraction); higher = more cells survive", "settings": "first compound 0.01 µM", "outline": "as §1", "values": [{"cell line": "LCLC-103H", "relative viability": 0.726}, {"cell line": "NCI-H1650", "relative viability": 0.401}, {"cell line": "NCI-H2170", "relative viability": 0.633}, {"cell line": "NCI-H1993", "relative viability": 1.03}, {"cell line": "NCI-H23", "relative viability": 0.293}, {"cell line": "ABC-1", "relative viability": 0.723}, {"cell line": "SK-MES-1", "relative viability": 0.266}, {"cell line": "PC-14", "relative viability": 0.203}, {"cell line": "HCC-366", "relative viability": 0.361}]}, {"compound": "COc1cccc2c1C(=O)c1c(O)c3c(c(O)c1C2=O)C[C@@](O)(C(=O)CO)C[C@@H]3O[C@H]1C[C@H](N)[C@H](O)[C@H](C)O1 [Doxorubicin] + O=C(c1cc(Cc2n[nH]c(=O)c3ccccc23)ccc1F)N1CCN(C(=O)C2CC2)CC1 [Olaparib] (partner 8 µM)", "assay": "relative viability (nuclei count vs DMSO), 5 days (fraction); higher = more cells survive", "settings": "first compound 0.03162 µM", "outline": "as §1", "values": [{"cell line": "LCLC-103H", "relative viability": 0.799}, {"cell line": "NCI-H1650", "relative viability": 0.179}, {"cell line": "NCI-H2170", "relative viability": 0.602}, {"cell line": "NCI-H1993", "relative viability": 0.817}, {"cell line": "NCI-H23", "relative viability": 0.334}, {"cell line": "ABC-1", "relative viability": 0.525}, {"cell line": "SK-MES-1", "relative viability": 0.2}, {"cell line": "PC-14", "relative viability": 0.0737}, {"cell line": "HCC-366", "relative viability": 0.209}]}, {"compound": "COc1cccc2c1C(=O)c1c(O)c3c(c(O)c1C2=O)C[C@@](O)(C(=O)CO)C[C@@H]3O[C@H]1C[C@H](N)[C@H](O)[C@H](C)O1 [Doxorubicin] + O=C(c1cc(Cc2n[nH]c(=O)c3ccccc23)ccc1F)N1CCN(C(=O)C2CC2)CC1 [Olaparib] (partner 8 µM)", "assay": "relative viability (nuclei count vs DMSO), 5 days (fraction); higher = more cells survive", "settings": "first compound 0.1 µM", "outline": "as §1", "values": [{"cell line": "LCLC-103H", "relative viability": 0.769}, {"cell line": "NCI-H1650", "relative viability": 0.127}, {"cell line": "NCI-H2170", "relative viability": 0.704}, {"cell line": "NCI-H1993", "relative viability": 0.962}, {"cell line": "NCI-H23", "relative viability": 0.32}, {"cell line": "ABC-1", "relative viability": 0.306}, {"cell line": "SK-MES-1", "relative viability": 0.146}, {"cell line": "PC-14", "relative viability": 0.0408}, {"cell line": "HCC-366", "relative viability": 0.25}]}]}
